The numbers were not newly measured in patent publication US20160058814A1, “PLANT EXTRACTS AND RELATED COMPOSITIONS, METHODS AND SYSTEMS” (priority 2014, published 2016), which cites them from elsewhere.

For this series the following is noted: in vivo.

Turning to `O=c1ccc2ccccc2o1` [Coumarin, coumarin], the 50% lethal dose (LD50) – broadly, the dose expected to kill half of the subjects tested – is 275 mg/kg.
